From patent US5610174A, “Use of α1A -selective adrenoceptor agonists for the treatment of urinary incontinence” (priority 1995, dated 1997)
Read-outs that look alike come from different tables or passages of the source.

Experiments:
[1] = biological target: T1, human dopamine D2 receptor (Homo sapiens, UniProt P14416); assay: Radioligand binding at human dopamine D2; details: [3H]spiperone; for Ki: read-out: pKi D2 (converted)
T1 construct: expressed in transfected cells; host or cells: COS-7 (plasmid pcEXV-D2, ATCC 75344)
Description: Human Dopamine D2 Receptors
The affinity of compounds at the D2 receptor were determined using membrane preparations from COS-7 cells transfected with the gene encoding the human D2 receptor. The coding region for the human D2 receptor was obtained from a human striatum cDNA library, and cloned into the cloning site of PCDNA 1 eukariotic expression vector. The plasmid DNA for the D2 receptor is designated pcEXV-D2, and was deposited on Nov. 6, 1992 under ATCC Accession No. 75344. This construct was transfected into COS-7 cells by the DEAE-dextran method. Cells were harvested after 72 hours and lysed by sonication in 5mM Tris-HCl, 5 mM EDTA, pH 7.5. The cell lysates were centrifuged at 1000 rpm for 5 minutes at 4° C., and the supernatant was centrifuged at 30,000×g for 20 minutes at 4° C. The pellet was suspended in 50 mM Tris-HCl (pH 7.4) containing 1 mM EDTA, 5 mM KCl, 1.5 mM CaCl2, 4 mM MgCl2, and 0.1% ascorbic acid. The cell lysates were incubated with [3H]spiperone (2 nM), using 10 μM (+)Butaclamol to determine nonspecific binding.

[2] = biological target: human dopamine D3 receptor; assay: Radioligand binding at human dopamine D3
Description: Other Dopamine receptors were prepared by known methods. (D1 : Dearry et al., Nature, 347, 72, (1990), deposited with the European Molecular Biological Laboratory (EMBL) Genbank as X55760; D3 : Sokoloff, P. et al., Nature, 347, 146 (1990), deposited with the European Molecular Biological Laboratory (EMBL) Genbank as X53944; D5 : Sunahara, R. K., et al., Nature, 350, 614 (1991), deposited with EMBL Genbank as X58454-HU HD 5DR).

human α1A adrenoceptor = biological target: T2, human α1A adrenoceptor (Homo sapiens, UniProt P25100); assay: biochemical; format: binding
T2 sequence (P25100 1-572): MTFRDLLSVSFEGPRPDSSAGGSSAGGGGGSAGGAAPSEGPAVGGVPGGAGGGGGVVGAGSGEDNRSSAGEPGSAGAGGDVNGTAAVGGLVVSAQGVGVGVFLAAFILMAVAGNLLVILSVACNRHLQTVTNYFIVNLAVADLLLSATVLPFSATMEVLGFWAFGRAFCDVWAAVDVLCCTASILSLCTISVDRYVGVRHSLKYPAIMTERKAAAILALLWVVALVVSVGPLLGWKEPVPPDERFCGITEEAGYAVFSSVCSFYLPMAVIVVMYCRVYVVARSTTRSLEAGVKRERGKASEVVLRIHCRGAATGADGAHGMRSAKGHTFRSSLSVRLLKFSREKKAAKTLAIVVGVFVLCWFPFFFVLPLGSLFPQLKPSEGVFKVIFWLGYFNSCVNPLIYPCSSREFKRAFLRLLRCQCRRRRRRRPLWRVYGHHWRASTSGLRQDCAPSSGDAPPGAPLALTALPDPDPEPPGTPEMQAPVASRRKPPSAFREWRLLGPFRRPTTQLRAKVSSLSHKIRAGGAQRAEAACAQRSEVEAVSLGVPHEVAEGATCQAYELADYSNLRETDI
Description: (§1) These cell lines were prepared by transfecting the cloned cDNA or cloned genomic DNA or constructs containing both genomic DNA and cDNA encoding the human α-adrenoceptors as follows:
The cells were grown, in a controlled environment (37° C., 5% CO2), as monolayers in Dulbecco's modified Eagle's Medium (GIBCO, Grand Island, N.Y.) containing 25 mM glucose and supplemented with 10% bovine calf serum, 100 units/ml penicillin g, and 100 μg/ml streptomycin sulfate.
(§2) Transfected cells from culture flasks were scraped into 5 ml of 5 mM Tris-HCl, 5 mM EDTA, pH 7.5, and lysed by sonication. The cell lysates were centrifuged at 1000 rpm. for 5 min at 4° C., and the supernatant was centrifuged at 30,000 ×g for 20 min at 4° C. The pellet was suspended in 50 mM Tris-HCl , 1 mM MgCl2, and 0.1% ascorbic acid at pH 7.5. […] The reaction was stopped by filtration through GF/B filters using a cell harvester.

human α1C adrenoceptor = biological target: T3, human α1C adrenoceptor (Homo sapiens, UniProt P35348); assay: biochemical; format: binding
T3 sequence (P35348 1-466): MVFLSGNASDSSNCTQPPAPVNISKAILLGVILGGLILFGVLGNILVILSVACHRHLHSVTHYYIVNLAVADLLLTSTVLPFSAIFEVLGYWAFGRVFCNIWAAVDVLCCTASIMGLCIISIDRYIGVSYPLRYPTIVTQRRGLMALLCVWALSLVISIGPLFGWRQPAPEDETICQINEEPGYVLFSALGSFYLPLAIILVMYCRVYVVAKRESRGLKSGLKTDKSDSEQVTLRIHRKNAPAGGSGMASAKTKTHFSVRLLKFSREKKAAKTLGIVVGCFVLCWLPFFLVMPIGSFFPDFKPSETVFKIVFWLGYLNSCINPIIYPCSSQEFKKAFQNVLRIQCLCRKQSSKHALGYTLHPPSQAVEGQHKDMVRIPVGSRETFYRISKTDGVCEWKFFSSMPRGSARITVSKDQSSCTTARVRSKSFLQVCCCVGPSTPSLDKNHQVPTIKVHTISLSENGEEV
Description: as §1
The construct involved ligating three partial overlapping fragments: a 5' 0.6 kb HincII genomic clone, a central 1.8 EcoRI hippocampal cDNA clone, and a 3' 0.6 Kb PstI genomic clone. The hippocampal cDNA fragment overlaps with the 5' and 3' genomic clones so that the HincII and PstI sites at the 5' and 3' ends of the cDNA clone, respectively, were utilized for ligation. This full-length clone was cloned into the KpnI site of the expression vector, using the 5' and 3' KpnI sites of the fragment, derived from vector (i.e., pBluescript) and 3'-untranslated sequences, respectively. Stable cell lines were obtained as described above.
as §2

[3] = Table 3, agonists, read-out: pKi α1A (converted)
[4] = Table 2, antagonists, versus 3H-prazosin

T1 sequence (P14416 whole entry): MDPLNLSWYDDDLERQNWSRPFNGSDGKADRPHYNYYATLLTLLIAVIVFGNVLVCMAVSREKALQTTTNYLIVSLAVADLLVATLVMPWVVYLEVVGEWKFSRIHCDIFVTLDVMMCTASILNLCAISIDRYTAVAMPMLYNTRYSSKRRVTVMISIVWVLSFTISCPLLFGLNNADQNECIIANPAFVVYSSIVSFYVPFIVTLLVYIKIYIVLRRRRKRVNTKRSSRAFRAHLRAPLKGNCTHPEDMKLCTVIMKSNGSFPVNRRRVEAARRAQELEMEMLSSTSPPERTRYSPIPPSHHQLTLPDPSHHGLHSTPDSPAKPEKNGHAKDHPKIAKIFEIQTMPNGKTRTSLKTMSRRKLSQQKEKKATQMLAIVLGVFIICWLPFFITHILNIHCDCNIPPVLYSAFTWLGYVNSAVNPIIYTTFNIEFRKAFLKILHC

| SMILES | pKi D3 [2] | Ki (human α1C adrenoceptor) | Ki (human α1A adrenoceptor) | also measured |
| --- | --- | --- | --- | --- |
| CNCCc1ccc(O)c(NS(C)(=O)=O)c1 [SK&F 102652] | 6.7 |  |  | pKi D2 [1]: 6.7 |
| CS(=O)(=O)Nc1c(O)ccc2c1CCCC2C1=NCCN1 (racemic) [Compound A-61603, (±)-N-[5-(4,5-Dihydro-1H-imidazol-2-yl)-2-hydroxy-5,6,7,8-tetra-hydronaphthalen-1-yl]methanesulfonamide] | 5.8 |  |  | Ki (human α1A adrenoceptor; [3]): 12.6 µM; Ki [1]: 10 µM |
| COc1ccc(OC)c(C(O)CN)c1 (racemic) [ST-1059, (±)-2-Amino-1-(2, 5 dimethoxyphenyl) ethanol] |  | 7.94 µM | 7.94 µM |  |
| C[C@H](N)[C@H](O)c1ccccc1 [(-)-norephedrine] |  | 15.8 µM | 25.1 µM |  |
| COc1ccccc1N1CCN(CCCNc2c(C)c(=O)n(C)c(=O)n2C)CC1 [Compound 5-MU] |  |  |  | Ki (human α1C adrenoceptor; Table 2, antagonists, versus 3H-prazosin, read-out: pKI (antagonist affinity, 3H-prazosin binding) hα1C (converted)): 0.002 µM; Ki (human α1A adrenoceptor; Table 2, antagonists, versus 3H-prazosin, read-out: pKI (antagonist affinity, 3H-prazosin binding) hα1A (converted)): 0.0158 µM |
| CN[C@@H](C)[C@H](O)c1ccccc1 [(-)-ephedrine] |  | 25.1 µM | 50.1 µM |  |
| CNC[C@H](O)c1cccc(O)c1 [(-)-phenylephrine] |  |  | 3.98 µM |  |
| COc1cc2c(cc1OC)CN(c1cc(N)c3cc(OC)c(OC)cc3n1)CC2 [Abanoquil, 2-(6,7-Dimethoxy-3,4-dihydro-1H-isoquinolin-2-yl)-6,7-dimethoxyquinolin-4-ylamine hemifumarate hydrate] |  |  |  | pKI (antagonist affinity, 3H-prazosin binding) hα1C (human α1C adrenoceptor; [4]): 10.4; pKI (antagonist affinity, 3H-prazosin binding) hα1A (human α1A adrenoceptor; [4]): 10.4 |
| COc1ccc(SC)c2c1C[C@@H]1[C@@H](C2)OCCN1C (relative stereo) [SDZ NVI-085, (±)-trans-4-Methyl-6-methoxy-9-thiomethoxy-3,4,4a, 5,10,10a-hexahydro-2H-naphtho[2,3-b][1,4]oxazine] | 6.0 |  |  | Ki (human α1C adrenoceptor; Table 3, agonists, read-out: pKi α1C (converted)): 1.26 µM; Ki (human α1A adrenoceptor; [3]): 2 µM; Ki [1]: 3.16 µM |
